Broadly, the IC50 is the concentration that gives 50% inhibition.

Where two headings read alike, the source gives them in different places. Bounds are passed on as bounds.

The test system of data set [1] is Colo-205 human colon adenocarcinoma cells. In words: MTT cytotoxicity test. It counts as cell-based. As to conditions: Colo-205, 72 h. The protocol:
(§1) All cell culture reagents were obtained from Sigma-Aldrich and plastic ware from Sarstedt (Nümbrecht, Germany). Human colon Colo-205 (chemo-sensitive) and Colo-320 (doxorubicin-resistant) adenocarcinoma and MRC-5 human embryonal lung fibroblast cell lines were purchased from LGC Promochem, Teddington, UK. The colon adenocarcinoma cells were cultured in Roswell Park Memorial Institute (RPMI) 1640 medium supplemented with 10% heat-inactivated fetal bovine serum, 2 mM L-glutamine, 1 mM sodium pyruvate and 100 mM HEPES. The MRC-5 cell line was cultured in Eagle’s Minimal Essential Medium (EMEM, Sigma-Aldrich, St. Louis, MO, USA) supplemented with a non-essential amino acid (NEAA) mixture (Sigma-Aldrich, St. Louis, MO, USA) a selection of vitamins, 10% heat-inactivated foetal bovine serum (FBS), 2 mM L-glutamine (Sigma-Aldrich, St. Louis, MO, USA), 1 mM Na-pyruvate (Sigma-Aldrich, St. Louis, MO, USA), nystatin (Sigma-Aldrich, St. Louis, MO, USA) and a penicillin-streptomycin mixture (Sigma-Aldrich, St. Louis, MO, USA) in concentrations of 100 U/L and 10 mg/L, respectively. The cells were incubated at 37 °C, in a 5% CO2, 95% air atmosphere. All cell lines were detached with Trypsin-Versene® (EDTA) solution for 5 min at 37 °C.
(§2) The tested compounds were dissolved in 90% (v/v) DMSO/H2O using 8 mM concentration, […] in the final samples the DMSO content was always lower than 1%. Then stock solutions were diluted in complete culture medium, and two-fold serial dilutions of compounds were prepared in 100 μL of the medium, horizontally. The semi-adherent colon adenocarcinoma cells were treated with Trypsin-Versene (EDTA) solution. They were adjusted to a density of 1 × 10^4 cells in 100 μL of RPMI 1640 or EMEM medium and were added to each well, with the exception of the medium control wells. The final volume of the wells containing compounds and cells was 200 μL. The plates containing Colo-205, Colo-320 or MRC-5 cells were incubated at 37 °C for 72 h; at the end of the incubation period, 20 μL of MTT solution (from a stock solution of 5 mg/mL) were added to each well. After incubation at 37 °C for 4 h, 100 μL of SDS solution (10% in 0.01 M HCI) were added to each well, and the plates were further incubated at 37 °C overnight. Cell growth was determined by measuring the optical density (OD) at 540/630 nm with a Multiskan EX plate reader (Thermo Labsystems, Cheshire, WA, USA). Inhibition of the cell growth (expressed as IC50: inhibitory concentration that reduces by 50% the growth of the cells exposed to the tested compounds) was determined from the sigmoid curve where 100 − ((ODsample − ODmedium control)/(ODcell control − ODmedium control)) × 100 values were plotted against the logarithm of compound concentrations. Curves were fitted by GraphPad Prism software (2021, Graphpad Software, San Diego, CA, USA) using the sigmoidal dose–response model (comparing variable and fixed slopes). The IC50 values were obtained from at least three independent experiments.
(Tetrazolium assays rely on reduction of a dye to a coloured formazan, in cell work by metabolically active cells.)

Data set [2] relates to MRC-5 human embryonal lung fibroblast cells. Nature of the data set: MTT cytotoxicity test. The data set is classed as cell-based. As to conditions: MRC-5, 72 h. As to the method:
as §1, §2

Data set [3] has as its system Colo-320 (doxorubicin-resistant) human colon adenocarcinoma cells. In words: MTT cytotoxicity test. The data set is classed as cell-based. The following applies: Colo-320, 72 h. As to the method:
as §1, §2

For data set [4] the following is noted: pH 7.4; cited from earlier work.
The conditions of data set [5]: 30% (v/v) DMSO/H2O; cited from earlier work.
Data set [6] is described as follows: literature pKa values of analogous (thio)semicarbazones. It counts as physicochemical. As to conditions: from literature pKa values (refs 22, 23).
Data set [7] relates to Colo-320 (doxorubicin-resistant) human colon adenocarcinoma cells. The arrangement: method as in PMID 35287037. The following applies: Colo-320, 72 h; cited from earlier work.
In data set [8] the test system is MRC-5 human embryonal lung fibroblast cells. The arrangement: method as in PMID 35287037. As to conditions: MRC-5, 72 h; cited from earlier work.
Data set [9] can be described thus: stability constants of Fe(III) complexes by pH-potentiometry. The data set is classed as physicochemical. The following applies: calculated at pH 7.4, cFe = 1 μM, cligand = 10 μM, from overall stability constants reported in Refs. 22, 27, 34.
The conditions of data set [10]: cited from earlier work.
Data set [11] relates to Colo-205 human colon adenocarcinoma cells. The arrangement: method as in PMID 35287037. As to conditions: Colo-205, 72 h; cited from earlier work.
Data set [12] can be described thus: stability constants of Fe(II) complexes by pH-potentiometry. The data set is classed as physicochemical. The following applies: calculated at pH 7.4, cFe = 1 μM, cligand = 10 μM, from overall stability constants reported in Refs. 22, 27, 34.

Turning to `[Cl][Cu][Cl]` [CuCl2, reference compound], the IC50 in data set [1] is 44.1 ± 0.4 µM; in data set [2] it was 43.9 ± 0.3 µM; in data set [3], 48.7 ± 0.4 µM.

`NC(=O)N/N=C/c1ccccc1O` [SSC, salicylaldehyde semicarbazone]: in data set [4], the logD7.4 entry is recorded as “+0.94”. Further, in data set [5], the pK1 is 9.32 and the pK2 is listed as more than 12.8. Also, the “fraction present in neutral form at pH 7.4” value in [6] was determined as 100%.

Take `NC(=S)N/N=C/c1ccccc1O` [STSC, salicylaldehyde TSC]: the logD7.4 entry in [4] is on record as “+1.59”. Besides, the IC50 in [7] was 52.2 ± 6.8 µM; in [8] it was 88 ± 19 µM; in data set [11], 69.7 ± 1.9 µM. Also, in data set [9], the “pFe(III)* (−logΣ[Fe(III)i(OH)j])” value is recorded as 8.4. For the same compound, the “E1/2 of the Fe(III)/Fe(II) redox couple of the iron complexes” value in data set [10] (STSC complexes, 'as it was found', no reference given) is recorded as −0.14 V vs. NHE. Besides, in data set [5], the pK1 is on record as 8.89. In data set [5], the pK2 is recorded as 12.59. Further, the “pFe(II) (−log[Fe(II)])” value in [12] is reported as 8.3. Moreover, the “fraction present in neutral form at pH 7.4” value in [6] is 97%.

Take `NC(=S)NN=Cc1ncccc1N` [Triapine, 3-aminopyridine-2-carbaldehyde thiosemicarbazone]: the figures for the IC50 in data set [7], in data set [8] and in data set [11] were 2.17 ± 0.15 µM, 31.4 ± 9.2 µM and 3.28 ± 0.63 µM, respectively. Moreover, the “pFe(III)* (−logΣ[Fe(III)i(OH)j])” value in [9] is 7.3. In [10], the “E1/2 of the Fe(III)/Fe(II) redox couple of the iron complexes” value is reported as “+0.08 V vs. NHE”. For the same compound, the “pFe(II) (−log[Fe(II)])” value in data set [12] is listed as 11.6.
